In patent publication US20230414689A1, “COMPOSITION FOR PREVENTING, IMPROVING OR TREATING INFLAMMATORY BOWEL DISEASE, COMPRISING ISATIDIS FOLIUM EXTRACT” (MTHERA PHARMA CO., LTD, priority 2021, published 2023):

What was measured:
[1] = system: 2.5% DSS-induced inflammatory bowel disease animal model; test: Body weight change in DSS-induced inflammatory bowel disease mice; assay type: in vivo, C57BL/6N male mice; details: 5-ASA 100 mg/kg oral for 10 days; 2.5% DSS in drinking water 8 days; body weight before DSS = 100%; negative control 84.50±2.78%, normal 104.89±1.09%
Description: (§1) 6-week-old C57BL/6N male mice were purchased and pre-bred for one week, and then they were randomly divided into a total of 4 groups of 8 mice per group, and experiments were conducted as shown in Table 1 below.
Body weight loss is a representative symptom of inflammatory bowel disease (Scientific Reports volume 10, Article number: 3829 (2020)). The body weight of the mouse was measured once a day at the same time (10 am) using an electronic scale. The rate of change in body weight of each group was obtained by summing the body weight of 8 mice per group and then dividing by 8. The average body weight immediately before the start of administration of 2.5% DSS in drinking water was set as 100%, and the average body weight of each group was calculated every day to measure the rate of change in body weight. Significance was verified by performing a Mann-Whitney test for each group between the negative control group to which 2.5% DSS was administered in drinking water and the experimental group.

[2] = system: 2.5% DSS-induced inflammatory bowel disease animal model; test: Spleen weight and length (spleen ratio) in DSS-induced inflammatory bowel disease mice; assay type: in vivo, C57BL/6N male mice; details: 5-ASA 100 mg/kg oral, last day of administration
Description: as §1
A representative symptom that can occur in relation to inflammatory bowel disease includes splenitis. As such, when the spleen becomes inflamed, the size of the spleen is increased by its nature (Nutrients 2019, 11(11), 2776), and in fact, it is known that the spleen becomes enlarged in the model of IBD induced after DSS treatment (Biol. Pharm. Bull. 43, 450-457 (2020)). Therefore, in order to evaluate the level of inflammation in the spleen of mice according to the administration of the Isatidis folium extract of the present invention, the mouse of Example 1 was sacrificed on the last day of each administration, and then the weight and length of the spleen of each group compared to those of the negative control group were measured, and the spleen ratio is shown.

## Nc1ccc(O)c(C(=O)O)c1 [5-ASA, 5-aminosalicylic acid]
[1]
  rate of change in body weight: 88.62±1.52%
[2]
  decrease of weight and length of the spleen compared to negative control group: 60.6%
